# Assay results: patent publication US5312919A, “Photooxidation products and derivatives thereof of merocyanine-540, their preparation and uses” (priority 1992, dated 1994)
# Where two headings read alike, the source gives them in different places.
# Experiments:
# [1] = test system: human Burkitt lymphoma Daudi cells; experiment: Cytotoxic effects on human Burkitt lymphoma Daudi cells (MTT assay); format: cell-based
# Procedure: Human Burkitt Lymphoma Daudi cells (1×10^6 cells/ml) were treated with different concentrations of Merodantoin. After overnight incubation at 37° C., the tumor cells kill was determined by MTT assay.
# Human Burkitt Lymphoma Daudi cells (1×10^6 cells/ml) were treated with different concentrations of Merocil. After overnight incubation at 37° C., the tumor cells kill was determined by MTT assay.
# (§1) Each cell type (1×10^6 cells/ml; in triplicate) was treated with indicated concentrations of Merocil or Merodantoin. After overnight (20 hr.) or 5 day incubation periods, the cell viability was determined by MTT assay and calculated as a percentage of untreated controls.
# [2] = test system: L1210 mouse leukemia cells; experiment: Combined effect on L1210 mouse leukemia cells (MTT assay); conditions: MC = 12.5 μg/ml; MD = 25 μg/ml; MZ = 25 μg/ml; overnight
# Procedure: The biological activities of the photooxidation products of MC 540 were determined. Preactivated MC 540 is abbreviated as pMC 540. Assays of antitumor activities of the products were carried out according to published standard methods.
# Mouse leukemia L1210 cells (1 × 10^6 cells/ml) were treated wit
# different combinations of the indicated compounds (isolated from
# preactivated merocyanine 540). After overnight incubation the cell kill
# [3] = test system: BT-20 (breast, adenocarcinoma); experiment: Inhibition of cell proliferation, BT-20 (MTT assay); format: cell-based; conditions: Homo sapiens, read-out: % inhibition of cell proliferation
# Excerpt: Preactivated MC 540 is abbreviated as pMC 540. […] 52: 831-38 (1990); and T. Mosmann, J. Immulog. Methods 65: 55-63 (1983). […]
# [4] = test system: H.S. Sultan (multiple myeloma); experiment: Inhibition of cell proliferation, H.S. Sultan (MTT assay); format: cell-based; conditions: 24 h, read-out: % inhibition of cell proliferation
# Procedure: (§2) Preactivated MC 540 is abbreviated as pMC 540. […] 52: 831-38 (1990); and T. Mosmann, J. Immulog. Methods 65: 55-63 (1983).
# (§3) Each cell type (1×10^6 cells/ml; in triplicate) was treated with indicated concentrations of merocil or merodantoin. […] The cytotoxicity in vehicle only (cremophor EL) controls was not detectable at highest dose tested.
# MT-4 cells = experiment: Effect on viability of MT-4 cells; format: cell-based; conditions: experimental conditions of Table 8
# Procedure: (§4) Cell free human immunodeficiency virus (HIV-1) was either left untreated or treated with indicated doses of Merocil or Merodantoin for one hour at 37° C. and added to MT-4 target cells. After 4 hour incubation at 37° C., the cells were washed three times and further incubated in drug free fresh growth medium (complete RPMI-1640) at 37° C. for 4 days. On day four, 50% of the culture supernatant was replaced with fresh growth medium to prevent cell death due to possible nutrient depletion. The viability of the cell was determined on day 11 by MTT assay. […] The viability of the MT-4 cells was not affected by Merocil or Merodantoin under the experimental conditions described above.
# certain tumor cells = experiment: Inhibition of proliferation of tumor cells (overall conclusion); format: cell-based
# Excerpt: as §2
# [5] = test system: C-33A (carcinoma cervix, human); experiment: Inhibition of cell proliferation, C-33A (MTT assay); format: cell-based; conditions: read-out: % inhibition of cell proliferation
# Procedure: as §2
# as §1, with “merocil” for “Merocil”, “merodantoin.” for “Merodantoin.”, “controls. The toxicity in vehicle only (cremophor EL) controls was not detectable at highest dose tested.” for “controls.”
# 8226 (multiple myeloma) = experiment: Inhibition of cell proliferation, 8226 (MTT assay); format: cell-based; conditions: 24 h, read-out: % inhibition of cell proliferation
# Procedure: as §2, §3
# [6] = test system: DU 145 (prostate, carcinoma, human); experiment: Inhibition of cell proliferation, DU 145 (MTT assay); format: cell-based; conditions: read-out: % inhibition of cell proliferation
# Procedure: as §2
# as §1, with “merocil” for “Merocil”, “merodantoin.” for “Merodantoin.”, “controls. The toxicity in vehicle only (cremophor EL) controls was not detectable at highest dose tested.” for “controls.”
# U266B1 (myeloma) = experiment: Inhibition of cell proliferation, U266B1 (MTT assay); format: cell-based; conditions: 24 h, read-out: % inhibition of cell proliferation
# Procedure: as §2, §3
# [7] = test system: JEG-3 (choriocarcinoma, human); experiment: Inhibition of cell proliferation, JEG-3 (MTT assay); format: cell-based; conditions: read-out: % inhibition of cell proliferation
# Procedure: as §2
# as §1, with “merocil” for “Merocil”, “merodantoin.” for “Merodantoin.”, “controls. The toxicity in vehicle only (cremophor EL) controls was not detectable at highest dose tested.” for “controls.”
# [8] = test system: human immunodeficiency virus (HIV-1); experiment: Inactivation of cell free human immunodeficiency virus (viability of MT-4 target cells, MTT assay); format: cell-based
# Procedure: as §2, §4
# [9] = test system: MS 751 (cervix, carcinoma, human); experiment: Inhibition of cell proliferation, MS 751 (MTT assay); format: cell-based; conditions: read-out: % inhibition of cell proliferation
# Procedure: as §2
# as §1, with “merocil” for “Merocil”, “merodantoin.” for “Merodantoin.”, “controls. The toxicity in vehicle only (cremophor EL) controls was not detectable at highest dose tested.” for “controls.”
# [10] = test system: normal human peripheral blood mononuclear cells; experiment: Cytotoxicity on normal human peripheral blood mononuclear cells (trypan blue dye exclusion); format: cell-based; conditions: doses of Table 1
# Procedure: (§5) Preactivated MC 540 is abbreviated as pMC 540.
# (§6) Merocil and Merodantoin were dissolved in cremophor EL whereas pMC 540 was prepared in 10% aqueous ethanol. […] Fresh human peripheral mononucleas cells (1×10^6 cells/ml) were treated with indicated concentration of compounds. After overnight incubation at 37° C., cell viability was determined by trypan blue dye exclusion method.
# [11] = as above; format: cell-based; conditions: human, peripheral blood mononuclear cells, overnight, 37° C., read-out: % cell kill (mean ± S.E.M.)
# Procedure: as §5, §6
# [12] = Homo sapiens, Daudi, read-out: % Cell Kill (means ± S.D.)
compound,measurement,setting,value
"CC1(O)Oc2ccccc2N1CCCS(=O)(=O)O (centres unmarked) [Meroxazole, 2-Hydroxy-2-methyl-3-[3'-sulfopropyl]-benzoxazolin]",cytotoxicity at 25 µg/mL,"[1]; Homo sapiens, Daudi, 25 μg/ml, representative experiment, read-out: % Cell Kill",0%
same,cytotoxicity at 50 µg/mL,"[1]; Homo sapiens, Daudi, 50 μg/ml, representative experiment, read-out: % Cell Kill",0%
same,cytotoxicity at 75 µg/mL,"[1]; Homo sapiens, Daudi, 75 μg/ml, representative experiment, read-out: % Cell Kill",0%
same,cytotoxicity at 100 µg/mL,"[1]; Homo sapiens, Daudi, 100 μg/ml, representative experiment, read-out: % Cell Kill",0%
same,cytotoxicity at 125 µg/mL,"[1]; Homo sapiens, Daudi, 125 μg/ml, representative experiment, read-out: % Cell Kill",0%
same,cytotoxicity at 500 µg/mL,"[1]; Homo sapiens, Daudi, 500 μg/ml, representative experiment, read-out: % Cell Kill",32%
same,cytotoxicity to Daudi cells (conclusion),[1]; doses of Table 7,not cytotoxic
same,% Cell Kill,[2],Zero
"CCCCN1C(=O)C(O)(OC)C(=O)N(CCCC)C1=S [Merocil, N,N'-Dibutyl-4,5 dihydro-5-hydroxy-5-methoxy-4-oxo-2-thiouracil]",inhibition at 0.78 µg/mL,"[3]; BT-20, 48 h",3%
same,inhibition at 1.56 µg/mL,"[3]; BT-20, 48 h",0%
same,inhibition at 3.13 µg/mL,"[3]; BT-20, 48 h",2%
same,inhibition at 6.25 µg/mL,"[3]; BT-20, 48 h",0%
same,inhibition at 12.5 µg/mL,"[3]; BT-20, 48 h",11%
same,inhibition at 0.78 µg/mL,"[3]; BT-20, 96 h",11%
same,inhibition at 1.56 µg/mL,"[3]; BT-20, 96 h",22%
same,inhibition at 3.13 µg/mL,"[3]; BT-20, 96 h",41%
same,inhibition at 6.25 µg/mL,"[3]; BT-20, 96 h",20%
same,inhibition at 12.5 µg/mL,"[3]; BT-20, 96 h",8%
same,growth inhibition of cultured Daudi lymphoma cells,[1]; 12.5 μg/ml,virtually complete growth inhibition
same,cytotoxicity at 0.78 µg/mL,[1]; [12],4.75 ± 3.2%
same,cytotoxicity at 1.56 µg/mL,[1]; [12],16.5 ± 9.45%
same,cytotoxicity at 3.13 µg/mL,[1]; [12],36.8 ± 16.1%
same,cytotoxicity at 6.25 µg/mL,[1]; [12],87.2 ± 9.9%
same,cytotoxicity at 12.5 µg/mL,[1]; [12],100%
same,inhibition at 0.78 µg/mL,[4],23%
same,inhibition at 1.56 µg/mL,[4],28%
same,inhibition at 3.13 µg/mL,[4],24%
same,inhibition at 6.25 µg/mL,[4],63%
same,inhibition at 12.5 µg/mL,[4],68%
same,viability of the MT-4 cells,MT-4 cells,not affected
same,inhibiting the proliferation of certain tumor cells,certain tumor cells,effective
same,inhibition at 0.78 µg/mL,[5]; 20 h,2%
same,inhibition at 1.56 µg/mL,[5]; 20 h,9%
same,inhibition at 3.13 µg/mL,[5]; 20 h,35%
same,inhibition at 6.25 µg/mL,[5]; 20 h,36%
same,inhibition at 12.5 µg/mL,[5]; 20 h,49%
same,inhibition at 0.78 µg/mL,[5]; 120 h,23%
same,inhibition at 1.56 µg/mL,[5]; 120 h,26%
same,inhibition at 3.13 µg/mL,[5]; 120 h,46%
same,inhibition at 6.25 µg/mL,[5]; 120 h,89%
same,inhibition at 12.5 µg/mL,[5]; 120 h,97%
same,inhibition at 0.78 µg/mL,8226 (multiple myeloma),17%
same,inhibition at 1.56 µg/mL,8226 (multiple myeloma),24%
same,inhibition at 3.13 µg/mL,8226 (multiple myeloma),26%
same,inhibition at 6.25 µg/mL,8226 (multiple myeloma),25%
same,inhibition at 12.5 µg/mL,8226 (multiple myeloma),55%
same,inhibition at 0.78 µg/mL,"[6]; DU-145, 20 h",0%
same,inhibition at 1.56 µg/mL,"[6]; DU-145, 20 h",0%
same,inhibition at 3.13 µg/mL,"[6]; DU-145, 20 h",0%
same,inhibition at 6.25 µg/mL,"[6]; DU-145, 20 h",5%
same,inhibition at 12.5 µg/mL,"[6]; DU-145, 20 h",3%
same,inhibition at 0.78 µg/mL,"[6]; DU-145, 120 h",26%
same,inhibition at 1.56 µg/mL,"[6]; DU-145, 120 h",33%
same,inhibition at 3.13 µg/mL,"[6]; DU-145, 120 h",71%
same,inhibition at 12.5 µg/mL,"[6]; DU-145, 120 h",93%
same,inhibition at 0.78 µg/mL,U266B1 (myeloma),3%
same,inhibition at 1.56 µg/mL,U266B1 (myeloma),6%
same,inhibition at 3.13 µg/mL,U266B1 (myeloma),21%
same,inhibition at 6.25 µg/mL,U266B1 (myeloma),8%
same,inhibition at 12.5 µg/mL,U266B1 (myeloma),8%
same,inhibition at 0.78 µg/mL,"[7]; JEG-3, 20 h",0%
same,inhibition at 1.56 µg/mL,"[7]; JEG-3, 20 h",3%
same,inhibition at 3.13 µg/mL,"[7]; JEG-3, 20 h",32%
same,inhibition at 6.25 µg/mL,"[7]; JEG-3, 20 h",68%
same,inhibition at 12.5 µg/mL,"[7]; JEG-3, 20 h",86%
same,inhibition at 0.78 µg/mL,"[7]; JEG-3, 120 h",8%
same,inhibition at 1.56 µg/mL,"[7]; JEG-3, 120 h",11%
same,inhibition at 3.13 µg/mL,"[7]; JEG-3, 120 h",11%
same,inhibition at 6.25 µg/mL,"[7]; JEG-3, 120 h",51%
same,inhibition at 12.5 µg/mL,"[7]; JEG-3, 120 h",86%
same,inactivation of cell free HIV,[8]; 75 μg/ml dose,virtually complete inactivation of the virus
same,inactivating human immunodeficiency virus (HIV-1),[8]; conclusion,effective
same,% Cell Kill,[2],28%
same,inhibition at 0.78 µg/mL,"[9]; MS751, 20 h",1%
same,inhibition at 1.56 µg/mL,"[9]; MS751, 20 h",7%
same,inhibition at 3.13 µg/mL,"[9]; MS751, 20 h",12%
same,inhibition at 6.25 µg/mL,"[9]; MS751, 20 h",20%
same,inhibition at 12.5 µg/mL,"[9]; MS751, 20 h",20%
same,inhibition at 0.78 µg/mL,"[9]; MS751, 120 h",10%
same,inhibition at 1.56 µg/mL,"[9]; MS751, 120 h",11%
same,inhibition at 3.13 µg/mL,"[9]; MS751, 120 h",12%
same,inhibition at 6.25 µg/mL,"[9]; MS751, 120 h",29%
same,inhibition at 12.5 µg/mL,"[9]; MS751, 120 h",89%
same,toxicity to normal human peripheral blood mononuclear cells,[10],relatively non-toxic
same,cytotoxicity,[11]; 0.78 μg/ml,2.67 ± 0.8%
same,cytotoxicity,[11]; 1.56 μg/ml,5 ± 0.67%
same,cytotoxicity,[11]; 3.13 μg/ml,4 ± 0.67%
same,cytotoxicity,[11]; 6.25 μg/ml,6%
same,cytotoxicity,[11]; 12.5 μg/ml,5 ± 0.71%
